Calls of active or inactive are those of the source. No cut-off for these calls is given here.
How the values were obtained:
[1] = system: Severe acute respiratory syndrome-related coronavirus; conditions: 2 to 4 uM
[2] = Inhibition of SARS coronavirus Mpro using MCA-AVLQSGFR-Lys(Dnp)-Lys-NH as substrate by fluorescence assay; design: species or system Severe acute respiratory syndrome-related coronavirus
[3] = system: Severe acute respiratory syndrome-related coronavirus

Q: Which inhibition [1] does the source give for `Brc1ccc(SSc2ncccn2)cc1` here?
A: Active

Q: Which Ki [2] does the source give for `CCOC(=O)/C=C/[C@H](C[C@@H]1CCNC1=O)NC(=O)[C@H](CCC(C)C)NC(=O)[C@@H](NC(=O)[C@@H](NC(=O)c1ccco1)C(C)C)C(C)C` here?
A: 6.7 µM

Q: With `Clc1ccc(SSc2nnco2)cc1` as the compound, how does the alphaKi [3] read?
A: 0.2 µM

Reference: ChEMBL document CHEMBL4118071, “Discovery of unsymmetrical aromatic disulfides as novel inhibitors of SARS-CoV main protease: Chemical synthesis, biological evaluation, molecular docking and 3D-QSAR study” (Eur J Med Chem, 2017)
